According to USRE34918E, “Azaazulene compounds which are useful as antiallergic and antiinflammatory agents” (Kaken Pharmaceutical Co., Ltd., priority 1988, dated 1995):
Values after ≈ are worked out from the molar mass of the structure shown. Values joined by “and” are separate entries in the source; they are usually repeats but may differ in a detail not shown here. Equal values may be shown once.

Legend:
[1] = tested on: histamine release from rat mast cell; assay: Inhibitory activity against histamine release from rat mast cell; assay type: cell-based; conditions: 10 μg/ml, read-out: Inhibitory rate against histamine release
Description: An anti-dinitrophenylated-ovalbumin (anti DNP-OVA) rat antiserum having 800 of PCA titer in homologous passive cutaneous anaphylaxis reaction in rats for 48 hours was diluted double with physiological saline, and 1 ml of diluted antiserum was injected intraperitoneally into rats to be passively sensitized. On the next day, peritoneal exudation cell (hereinafter referred to as "PEC") was collected. The collected PEC was washed with a medium containing 0.1% BSA, and 1.5×10^5 of the PEC were added to each test tube. AFter incubation at 37° C. for 10 minutes, 50 μl of test compound solution in a same medium was added thereto. After 30 seconds, 50 μl of antigen solution (DVA-OVA 100 μg/ml) was further added thereto to give the total amount of 500 μl of the reaction mixture, and histamine release reaction was induced. After 10 minutes, 1 ml of physiological saline with cooled Tris buffered solution containing 1 mM EDTA were added thereto to stop the reaction. After centrifugation, the amount of histamine in supernatant was determined by fluorescence method according to the method of Shore et al [cf. J. Pharmacol. Exp. Ther., 127, 182 (1959)]. Inhibition rate against histamine release was calculated according to the following equation.
Inhibition rate against histamine release [formula] M: Amount of histamine in supernatant under addition of antigen and non-addition of test compound
S: Amount of histamine in supernatant under addition of antigen and test compound
B: Amount of histamine in supernatant under non-addition of antigen and test compound.
The test compound was used in a concentration of 10 μg/ml.

[2] = tested on: PCA (homologous passive cutaneous anaphylaxis) in rat; assay: Inhibitory activity against PCA in rat; assay type: in vivo, rat (male Slc: Wistar); conditions: Rattus norvegicus; 5 mg/kg oral, 1 hour before antigen challenge; read-out: Inhibition rate against PCA
Description: An anti-dinitrophenylated-ovalbumin (hereinafter referred to as "anti-DNP-OVA") rat antiserum having 800 of PCA titer in homologous passive cutaneous anaphylaxis reaction in rats for 48 hours, was diluted 200 times with physiological saline, and diluted antiserum was injected intradermally into back of groups of 5 male Slc: Wistar rats weighing 130-150 g in a volume of 50 μl/site to be passively sensitized. After 48 hours, 0.6 ml of 1% (w/v) Evans blue solution containing 1.5 mg of antigen DNP-OVA was administered intravenously into the tail. Thirty minutes later, the rats were bled to death and skin of the rats was removed. According to the method of Katayama et al [Microbiol. […] The test compound was suspended in 0.5% (w/v) aqueous solution of carboxymethylcellulose (hereinafter referred to as "CMC"), the suspension was administered orally in a ratio of 5 mg/kg 1 hour before challenging an antigen.
Inhibition rate against PCA was calculated according to the following equation. [formula] M: Amount of leaked pigment in antibody-sensitized site under administration of CMC without the test compound
S: Amount of leaked pigment in antibody-sensitized site under administration of the test compound in CMC
B: Amount of leaked pigment in antibody-nonsensitized site

[3] = Acute toxicity in mouse; assay type: in vivo; conditions: 2 weeks observation
Description: The test was carried out with the compounds obtained in Examples 5 and 9. Groups of 5 male ddy mice weighing 26 to 28 g were employed. The test compounds were suspended in a 0.5% CMC aqueous solution and the resulting suspension was administered orally in an amount of 500 for the compound obtained in Example 9, 1000 or 2000 mg/kg body weight. The survivors were kept under observation daily for 2 weeks. From the results shown in Table 6, the LD50 of the compounds obtained in Example 5 and 9 were estimated to be more than 2000 mg/kg. The other compounds of the present invention also had the same toxicity as the above compounds.

[4] = biological target: T1, 5-lipoxygenase (Cavia porcellus, UniProt A0A286X958); assay: 5-lipoxygenase inhibiting activity in guinea pig; assay type: biochemical; conditions: read-out: Inhibition rate against 5-lipoxygenase activity
T1 construct: 5-lipoxygenase was prepared with polymorphonuclear leukocyte obtained from peritoneal cavity; endogenous in cells; host or cells: guinea pig peritoneal polymorphonuclear leukocytes (casein-elicited)
T1 sequence (A0A286X958 1-674): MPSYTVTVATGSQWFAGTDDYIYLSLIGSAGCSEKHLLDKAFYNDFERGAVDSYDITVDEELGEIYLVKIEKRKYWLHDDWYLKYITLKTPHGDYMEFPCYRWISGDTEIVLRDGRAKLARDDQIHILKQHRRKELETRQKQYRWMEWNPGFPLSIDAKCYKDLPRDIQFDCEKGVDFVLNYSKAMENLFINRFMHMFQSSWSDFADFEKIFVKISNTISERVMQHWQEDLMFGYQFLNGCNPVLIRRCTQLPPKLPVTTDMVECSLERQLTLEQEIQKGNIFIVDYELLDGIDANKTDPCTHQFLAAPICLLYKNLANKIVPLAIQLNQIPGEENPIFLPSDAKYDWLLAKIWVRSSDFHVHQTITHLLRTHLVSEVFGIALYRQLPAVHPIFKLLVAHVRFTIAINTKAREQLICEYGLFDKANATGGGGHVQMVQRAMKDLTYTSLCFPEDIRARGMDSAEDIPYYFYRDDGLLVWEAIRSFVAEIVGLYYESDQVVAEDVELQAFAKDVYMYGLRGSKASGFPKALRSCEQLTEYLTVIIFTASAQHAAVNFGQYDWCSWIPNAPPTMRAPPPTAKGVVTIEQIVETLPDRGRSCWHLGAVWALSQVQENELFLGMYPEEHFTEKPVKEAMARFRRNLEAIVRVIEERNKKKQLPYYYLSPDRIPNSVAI
Description: The test was carried out according to the method of Ochi [cf. J. Biol. Chem., 258, 5754-5758 (1983)]. Two % casein solution in saline was injected intraperitoneally into guinea pigs in an amount of 1/10 of body weight. After 16 hours, 5-lipoxygenase was prepared with polymorphonuclear leukocyte obtained from peritoneal cavity. Test compound and 5-lipoxygenase were pre-incubated at 30° C. for 10 minutes, CaCl2 (calcium chloride) and ^14 C-arachidonic acid were added thereto, and the resulting mixture was incubated for 20 minutes. A mixture of ethyl acetate/methanol/0.2M citric acid=30/4/1 (by volume) was added thereto to stop the reaction. After centrifugation, the organic solvent layer was spotted on a plate for thin layer chromatography and developed. Effect of the test compound was determined from the amount of ^14 C-5-hydroxyeicosatetraenoic acid (hereinafter referred to as "5-HETE") formed from ^14 C-arachidonic acid. Radioactivity of 5-HETE position was measured with a liquid scintillation counter.
Inhibition rate against 5-lipoxygenase activity was calculated according to the following equation.
Inhibition rate against 5-lipoxygenase activity [formula] A: Value of radioactivity in the control group B: Value of radioactivity in the test compound group
Each test compound was used in a concentration of 10 μM.

[5] = tested on: smooth musculus trachealis; assay: Relaxant activity of smooth musculus trachealis in guinea pig; design: species or system guinea pig (male Hartley); conditions: Cavia porcellus; tracheal chain strips, 37° C.; read-out: Concentration for 50% relaxation
Description: Male Hartley guinea pigs weighing 350 to 550 g were bleed to death, and immediately the tracheae were extirpated. According to the method of Takagi et al [cf. Chem. Pharm. Bull., 8, 716 (1958)], tracheal chain strips was prepared, and the sample was suspended on Magnus apparatus under addition of load of 0.5 g. The test was carried out at 37° C. of liquid temperature. After position of tonus was examined with histamine (10^-6 g/ml) and isoproterenol (10^-7 g/ml), the test compound dissolved in a mixture of dimethyl sulfoxide and physiological saline was added thereto, and the test compound was investigated with respect to the effect on smooth musculus trachealis. Theophylline was used as a positive comparative drug. The relaxation and the contraction of smooth musculus trachealis were recorded on servocorder (SR 6342: commercially available from Watanabe Instruments Corp.) by connecting Isotonic Transducer (TD-1125: commercially available from Nihon Kohden Kogyo Co., Ltd.) to a balancing box.

[6] = tested on: carrageenin edema in a foot-pad of rat; assay: Effect on carrageenin edema in a foot-pad of rat; assay type: in vivo, rat (male Wister); conditions: 4 hours after carrageenin; for Inhibition rate against swelling: vs 0.5% CMC group
Description: The test was carried out according to the modified method on a method of Winter et al [Proc. Soc. Exp. Biol Med., 111, 544-547 (1962)]. Five male Wister rats weighing 148 to 162 g which were subjected to fasting for 24 hours were used as one group.
The test compound was suspended in 0.5% aqueous solution of CMC, and the suspension was administered orally in a amount of 50 mg/kg. After 60 minutes, 0.1 ml of 1% carrageenin solution in physiological saline was injected subcutaneously into the foot-pad of the left hind foot. Four hours after the injection of carrageenin, the volume of the foot-pad was measured by the apparatus for measurement of foot-pad volume in rat (commercially available from Ugobasile).
Swelling volume was calculated from the difference between a volume of foot-pad before inflaming the foot-pad, i.e. normal volume and that after inflaming it. Effect of a test compound was expressed as inhibition rate against swelling by calculating percentage in comparison with the 0.5% CMC administration group.
Indomethacin (commercially available from Merck Co.) was used as a positive comparative drug.

[7] = 5 mg/kg p.o. (positive comparative drug)

| Structure (SMILES) | inhibition at 10 µg/mL [1] [%] | inhibition in vivo at 5 mg/kg [2] [%] | Mortality ([3]; 1000 mg/kg p.o.) | Mortality ([3]; 2000 mg/kg p.o.) | LD50 at 336 h ([3]; mouse, in vivo, oral) [mg/kg] | inhibition at 10 µM [4] [%] | EC50 [5] [µg/mL] | Swelling volume 4 hours after inflaming, mean ± standard error [6, 7] [mL] | Inhibition rate against swelling [6, 7] [%] | Swelling volume 4 hours after inflaming, mean ± standard error ([6]; 50 mg/kg p.o.) | Inhibition rate against swelling ([6]; 50 mg/kg p.o.) [%] |
| --- | --- | --- | --- | --- | --- | --- | --- | --- | --- | --- | --- |
| CC(C)c1cccc2c(-c3nnn[nH]3)c(=O)n(Cc3ccccc3)c-2c1 [Example 5, 7-Iso-propyl-1-benzyl-3-(5-tetrazolyl)-1-azaazulane-2-one] | 81.1 | 94.8 ± 5.1 | 0/5 | 0/5 | > 2000 | 1.5 | 1.2 (≈ 3.47 µM) |  |  |  |  |
| COc1ccc2c(c1)c(CC(=O)O)c(C)n2C(=O)c1ccc(Cl)cc1 [Indomethacin, reference compound] |  |  |  |  |  |  |  | 0.47 ± 0.056 | 47.8 |  |  |
| CC(C)c1cccc2c(-c3nnn[nH]3)c(=O)n(Cc3ccc(F)cc3)c-2c1 [Example 10, 1-(4-Fluorobenzyl)-7-iso-propyl-3-(5-tetrazolyl)-1-azaazulane-2-one] | 99.8 |  |  |  |  | 41.8 | 3.4 (≈ 9.36 µM) |  |  | 0.58 mL and 0.58 ± 0.036 mL | 35.6 |
